Laboratory results taken from ChEMBL document CHEMBL1201862, “PubChem BioAssay data set” (2004).
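All cell lines were grown in 96-well plates and treated with compound for 48 hours. At the GI50, growth is halved.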 Active and inactive are the calls of the source. No stated cut-off is given here; in the data, active = GI50 up to about 1.1 µM and inactive = higher.

Assays:
Assay in all cases: NCI tumour cell line growth inhibition, 48 h
BT-549 = test system: BT-549
HCC 2998 = test system: HCC 2998
OVCAR-4 = test system: OVCAR-4
SF-539 = test system: SF-539
MDA-N = test system: MDA-N
K562 = test system: K562
SN12C = test system: SN12C
CAKI-1 = test system: CAKI-1
Malme-3M = test system: Malme-3M
A549 = test system: A549
NCI-H460 = test system: NCI-H460
786-0 = test system: 786-0
COLO 205 = test system: COLO 205
HCT-15 = test system: HCT-15
CCRF-CEM = test system: CCRF-CEM
SF-268 = test system: SF-268
HOP-92 = test system: HOP-92
TK-10 = test system: TK-10
RPMI-8226 = test system: RPMI-8226
SW-620 = test system: SW-620
RXF 393 = test system: RXF 393
SK-MEL-28 = test system: SK-MEL-28
KM12 = test system: KM12
HCT-116 = test system: HCT-116
M14 = test system: M14
EKVX = test system: EKVX
Hs-578T = test system: Hs-578T
U-251 = test system: U-251
SNB-75 = test system: SNB-75
IGROV-1 = test system: IGROV-1
HOP-62 = test system: HOP-62
HT-29 = test system: HT-29
SNB-19 = test system: SNB-19
PC-3 = test system: PC-3
T47D = test system: T47D
SF-295 = test system: SF-295
NCI/ADR-RES = test system: NCI/ADR-RES
M19-MEL = test system: M19-MEL
SK-OV-3 = test system: SK-OV-3
UO-31 = test system: UO-31
OVCAR-3 = test system: OVCAR-3
OVCAR-5 = test system: OVCAR-5
MCF7 = test system: MCF7
NCI-H226 = test system: NCI-H226
DU-145 = test system: DU-145
SNB-78 = test system: SNB-78
UACC-257 = test system: UACC-257
LOX IMVI = test system: LOX IMVI
MOLT-4 = test system: MOLT-4
MDA-MB-231 = test system: MDA-MB-231
NCI-H522 = test system: NCI-H522
MDA-MB-435 = test system: MDA-MB-435
SR = test system: SR
SK-MEL-5 = test system: SK-MEL-5
KM-20L2 = test system: KM-20L2
UACC-62 = test system: UACC-62
NCI-H23 = test system: NCI-H23
HL-60 = test system: HL-60
OVCAR-8 = test system: OVCAR-8
ACHN = test system: ACHN
SK-MEL-2 = test system: SK-MEL-2
A498 = test system: A498

CCOP(=O)(OCC)/C(C#N)=C\c1cccc2ccccc12
GI50 (BT-549): 51.9 µM (inactive)
GI50 (HCC 2998): > 58.5 µM (inactive)
GI50 (OVCAR-4): > 75.3 µM (inactive)
GI50 (SF-539): > 56 µM (inactive)
GI50 (MDA-N): 40.6 µM (inactive)
GI50 (K562): 31 µM (inactive)
GI50 (SN12C): 82.4 µM (inactive)
GI50 (CAKI-1): 74.3 µM (inactive)
GI50 (Malme-3M): 42.7 µM (inactive)
GI50 (A549): > 100 µM (inactive)
GI50 (NCI-H460): > 91.8 µM (inactive)
GI50 (786-0): > 71.4 µM (inactive)
GI50 (COLO 205): 91.8 µM (inactive)
GI50 (HCT-15): 42.7 µM
GI50 (CCRF-CEM): 30.1 µM (inactive)
GI50 (SF-268): 21.4 µM (inactive)
GI50 (HOP-92): 23 µM (inactive)
GI50 (TK-10): > 100 µM (inactive)
GI50 (RPMI-8226): 23 µM (inactive)
GI50 (SW-620): 68.5 µM (inactive)
GI50 (RXF 393): 31.6 µM (inactive)
GI50 (SK-MEL-28): 28.2 µM (inactive)
GI50 (KM12): > 74.8 µM (inactive)
GI50 (HCT-116): 46 µM (inactive)
GI50 (M14): 80 µM (inactive)
GI50 (EKVX): 31.9 µM (inactive)
GI50 (Hs-578T): 20.2 µM (inactive)
GI50 (U-251): > 67.5 µM (inactive)
GI50 (SNB-75): 22.4 µM (inactive)
GI50 (IGROV-1): > 82.4 µM (inactive)
GI50 (HOP-62): > 56.6 µM (inactive)
GI50 (HT-29): > 66.1 µM (inactive)
GI50 (SNB-19): > 57.1 µM (inactive)
GI50 (PC-3): 64 µM (inactive)
GI50 (T47D): 26.8 µM (inactive)
GI50 (SF-295): 60.1 µM (inactive)
GI50 (NCI/ADR-RES): 52.7 µM (inactive)
GI50 (M19-MEL): > 100 µM (inactive)
GI50 (SK-OV-3): 45.5 µM (inactive)
GI50 (UO-31): 56.9 µM (inactive)
GI50 (OVCAR-3): > 55.7 µM (inactive)
GI50 (OVCAR-5): > 100 µM (inactive)
GI50 (MCF7): 39.9 µM (inactive)
GI50 (NCI-H226): 32.4 µM (inactive)
GI50 (DU-145): 57.9 µM (inactive)
GI50 (SNB-78): 48.2 µM (inactive)
GI50 (UACC-257): 71.3 µM (inactive)
GI50 (LOX IMVI): 20.9 µM (inactive)
GI50 (MOLT-4): 35.4 µM (inactive)
GI50 (MDA-MB-231): 40.6 µM (inactive)
GI50 (NCI-H522): > 88.1 µM (inactive)
GI50 (MDA-MB-435): 34.7 µM (inactive)
GI50 (SR): 31.8 µM (inactive)
GI50 (SK-MEL-5): 39.5 µM (inactive)
GI50 (KM-20L2): > 100 µM (inactive)
GI50 (UACC-62): 35.5 µM (inactive)
GI50 (NCI-H23): 78.3 µM (inactive)
GI50 (HL-60): 23 µM (inactive)
GI50 (OVCAR-8): > 45.7 µM (inactive)
GI50 (ACHN): > 75.9 µM (inactive)
GI50 (SK-MEL-2): > 62.1 µM (inactive)
GI50 (A498): 44.5 µM (inactive)
